This note sets out measurements from PMC9818789, “Identification of Small-Molecule Bioactive Constituents from the Leaves of Vaccinium bracteatum Confirms It as a Potential Functional Food with Health Benefits” (Foods, 2023).

Experiment [1] in a line: ABTS radical scavenging assay. The conditions noted are these: mean ± SD (n = 3); NA = not active (<50% radical scavenging activity at the highest testing concentration of 200 μM); read-out: ABTS free radical scavenging activity IC50.
Description: The antioxidant effect of the VBL constituents was assessed by besting their free radical scavenging activity with the ABTS (diammonium 2,2′-azino-bis (3-ethylbenzothiazoline-6-sulphonate) and DPPH (1,1-diphenyl-2-picrylhydrazyl) methods, according to the protocols described previously [10], and ascorbic acid was used as the positive control.
A short description of experiment [2]: DPPH radical scavenging assay. The conditions noted are these: mean ± SD (n = 3); NA = not active (<50% radical scavenging activity at the highest testing concentration of 200 μM); read-out: DPPH free radical scavenging activity IC50. As to the method: The antioxidant effect of the VBL constituents was assessed by besting their free radical scavenging activity with the ABTS (diammonium 2,2′-azino-bis (3-ethylbenzothiazoline-6-sulphonate) and DPPH (1,1-diphenyl-2-picrylhydrazyl) methods, according to the protocols described previously, and ascorbic acid was used as the positive control.

Experiment [3] relates to PC12 cells. Nature of the experiment: Neuroprotective assay: 6-OHDA-induced PC12 cell injury, MTT. The conditions noted are these: for Neuroprotective effect against 6-OHDA-induced PC12 cell injury (cell viability): pretreated 12 h, 6-OHDA 150 μM for 13 h. It is filed as cell-based. As to the method: The cell cultures were prepared according to the method described by Sergi et al.. Briefly, the protection of compounds 1–8 on 6-hydroxydopamine (6-OHDA)-induced PC 12 cell injury was assessed by MTT (3-(4,5-dimethylthiazol-2-yl)-2,5-diphenyltetrazolium bromide) assay, and N-acetylcysteine (NAC, 50 μM) was used as the positive control. PC12 cells were cultured in RPMI 1640 medium supplemented with 10% fetal bovine serum (FBS), and they were incubated at 37
C in a humidified environment containing 5% CO2 and then cultured in 96-well plates at a density of 1.5 × 10^5 cells/well in 100 μL for 24 h. The neuron cells were first pretreated with various concentrations (25, 50, 100 μM) of tested compounds for 12 h before 6-OHDA (150 μM) treatment for further 13 h. Then, 10 μL of MTT was added to each well and incubated for another 4 h, and the crystals were dissolved with DMSO. The optical density at 490 nm was detected by a plate reader. The cell viability was lastly measured to evaluate the compounds’ protective effect, which was expressed as the percentage of the control group.

Experiment [4] deals with NO production in RAW264.7 macrophages. Description: NO production inhibitory assay, lipopolysaccharide-induced macrophages. The conditions noted are these: Mus musculus, lipopolysaccharide-induced murine macrophages, read-out: NO production inhibition IC50. It is filed as cell-based. As to the method:
The nitric oxide (NO) production inhibitory assay was conducted in murine RAW264.7 macrophages as we recorded in an early report, with quercetin as the reference compound.

In the case of `O=C1O[C@H]([C@@H](O)CO)C(O)=C1O` [Ascorbic acid, ascorbic acid, reference compound], the values for the half-inhibitory concentration (IC50) in experiment [1] and in experiment [2] were 24.3 ± 0.41 µM and 13.3 ± 1.86 µM, respectively.

For `COC1OC2CC3C(O)CC(COC(=O)C=Cc4ccc(O)cc4)(O2)C13` (stereo not shown) [Compound 1], the IC50 in experiment [1] is 15.3 ± 1.37 µM. In addition, the “Neuroprotective effect compared with the positive control NAC” value in experiment [3] (compound 50 μM, NAC 50 μM, 6-OHDA 150 μM) is given as “comparable to the positive control NAC”. Moreover, the “Neuroprotective effect against 6-OHDA-induced PC12 cell injury (cell viability)” value (shortened to “Neuroprotective effect … (cell viability)”) in experiment [3] (compound 50 μM) is “apparent protective activity”.

On to `CO[C@@H]1O[C@@H]2C[C@@H]3[C@H]1[C@@](COC(=O)/C=C\c1ccc(O)cc1)(C[C@H]3O)O2` [Compound 2], for which the 50% inhibitory concentration (IC50) in experiment [1] was 34.2 ± 3.03 µM.

Take `O=C(/C=C/c1ccc(O)cc1)OC[C@@]12C[C@@H](O)[C@@H]3C[C@@H](O[C@@H](O)[C@@H]31)O2` [Compound 3]: the IC50 in experiment [1] was determined as 35.6 ± 1.04 µM.

In the case of `O=C(/C=C\c1ccc(O)cc1)OC[C@@]12C[C@@H](O)[C@@H]3C[C@@H](O[C@@H](O)[C@@H]31)O2` [Compound 4], in experiment [1], the IC50 amounted to 19.4 ± 0.24 µM.

Consider `COC1CC2C(O)CC(O)(COC(=O)C=Cc3ccc(O)cc3)C2C(OC)O1` (stereo not shown) [Compound 5], for which the IC50 in experiment [1] came to 32 ± 1.76 µM. Moreover, in experiment [3] (compound 50 μM), the “Neuroprotective effect … (cell viability)” value is given as “apparent protective activity”.

Consider `NCCc1cc(O)c(O)cc1O` [Compound 6-OHDA, 6-hydroxydopamine, reference compound], for which, in experiment [3] (6-OHDA at 150 μM), the “Inhibition ratio of PC12 cell viability (6-OHDA-induced cell injury)” value is 52.68%.

In the case of `CO[C@H]1C[C@@H]2[C@H]([C@H](OC)O1)[C@@](O)(COC(=O)/C=C\c1ccc(O)cc1)C[C@H]2O` [Compound 6], the IC50 in experiment [1] was determined as 28.2 ± 0.63 µM. Moreover, the “Neuroprotective effect … (cell viability)” value in experiment [3] (compound 50 μM) was “apparent protective activity”.

For the molecule `CO[C@H]1C[C@H]2C=C[C@](O)(COC(=O)/C=C/c3ccc(O)cc3)[C@H]2[C@H](OC)O1` [Compound 7], the IC50 in experiment [1] turned out to be 50.6 ± 2.97 µM. Further, the “Neuroprotective effect … (cell viability)” value in experiment [3] (compound 50 μM) was “apparent protective activity”.

In the case of `COC1CC2C(O)CC(O)(COC(=O)C=Cc3ccc(O)cc3)C2C(OC)O1` (stereo not shown) [Compound 8], the IC50 in experiment [1] was determined as 39.1 ± 2.3 µM.

In the case of `COc1cc(CCCO)ccc1O[C@@H](CO)[C@H](O)c1cc(OC)c(O)c(OC)c1` [Compound 9a], the values for the IC50 in experiment [1] and in experiment [2] were 9.39 ± 0.97 µM and 47.5 ± 7.24 µM, respectively.

For the molecule `COc1cc(CCCO)ccc1O[C@H](CO)[C@@H](O)c1cc(OC)c(O)c(OC)c1` [Compound 9b], the IC50 in experiment [1] amounted to 10.1 ± 0.67 µM; in experiment [2] it was 52.6 ± 6.89 µM.

Regarding `COc1cc([C@H](O)[C@@H](CO)Oc2ccc(CCCO)cc2OC)ccc1O` [Compound 10a, erythro-4,7,9,9′-tetrahydroxy-3,3′-dimethoxy-8,4′-oxyneolignane], in experiment [1], the 50% inhibitory concentration (IC50) was 19.7 ± 0.61 µM.

On to `COc1cc([C@@H](O)[C@H](CO)Oc2ccc(CCCO)cc2OC)ccc1O` [Compound 10b, erythro-4,7,9,9′-tetrahydroxy-3,3′-dimethoxy-8,4′-oxyneolignane], for which the IC50 in experiment [1] turned out to be 16.2 ± 2.65 µM.

With `COc1cc([C@@H](O)[C@@H](CO)Oc2ccc(CCCO)cc2OC)ccc1O` [Compound 11a, threo-4,7,9,9′-tetrahydroxy-3,3′-dimethoxy-8,4′-oxyneolignane], the IC50 in experiment [1] was 12.1 ± 1.42 µM; in experiment [2], 98.7 ± 1.78 µM.

Turning to `COc1cc([C@H](O)[C@H](CO)Oc2ccc(CCCO)cc2OC)ccc1O` [Compound 11b, threo-4,7,9,9′-tetrahydroxy-3,3′-dimethoxy-8,4′-oxyneolignane], the IC50 in experiment [1] was determined as 14.8 ± 1.25 µM; in experiment [2], 105 ± 4.11 µM.

For the molecule `COc1cc([C@H]2Oc3c(O)cc(CCCO)cc3[C@@H]2CO)ccc1O` [Compound 12a, cedrusin], the IC50 turned out to be 9.54 ± 0.64 µM in experiment [1] and 31.2 ± 1.9 µM in experiment [2].

In the case of `COc1cc([C@@H]2Oc3c(O)cc(CCCO)cc3[C@H]2CO)ccc1O` [Compound 12b, cedrusin], the results for the IC50 in experiment [1] and in experiment [2] were 12.3 ± 0.24 µM and 44.3 ± 2.05 µM, respectively.

In the case of `COc1ccc([C@H]2Oc3c(O)cc(CCCO)cc3[C@@H]2CO)cc1OC` [Compound 13a, 4-O-methylcedrusin], the IC50 in experiment [1] was found to be 21.7 ± 3.5 µM.

Consider `COc1ccc([C@@H]2Oc3c(O)cc(CCCO)cc3[C@H]2CO)cc1OC` [Compound 13b, 4-O-methylcedrusin], for which, in experiment [1], the IC50 was found to be 37.1 ± 8.17 µM.

As to `COc1cc([C@@H]2Oc3c(OC)cc(CCCO)cc3[C@H]2CO)ccc1O` [Compound 14a, dihydrodehydrodiconiferyl alcohol], the IC50 in experiment [4] was 52.2 ± 6.17 µM; in experiment [1] it was 12.3 ± 1.82 µM.

As to `COc1cc([C@@H]2Oc3c(OC)cc(CCCO)cc3[C@H]2CO)ccc1O` [Compound 14b, dihydrodehydrodiconiferyl alcohol], the IC50 in experiment [1] worked out at 14.1 ± 1.3 µM.

`COc1cc([C@H]2Oc3c(OC)cc(CCCO)cc3[C@@H]2CO)cc(OC)c1O` [Compound 15a, 5-methoxydihydrodehydrodiconiferyl alcohol]: the IC50 in experiment [1] came to 17.2 ± 0.89 µM; in experiment [2], 40.4 ± 6.09 µM.

Turning to `COc1cc([C@@H]2Oc3c(OC)cc(CCCO)cc3[C@H]2CO)cc(OC)c1O` [Compound 15b, 5-methoxydihydrodehydrodiconiferyl alcohol], the IC50 in experiment [1] was 24.2 ± 3.92 µM; in experiment [2], 55.1 ± 2.43 µM.

Consider `COc1cc(C2c3c(cc(OC)c(O)c3OC)CC(CO)C2CO)cc(OC)c1O` (stereo not shown) [Compound 16a, polystachyol], for which the results for the IC50 in experiment [1] and in experiment [2] were 11.1 ± 3.31 µM and 47.9 ± 6.6 µM, respectively.

Turning to `COc1cc(C2c3c(cc(OC)c(O)c3OC)CC(CO)C2CO)cc(OC)c1O` (stereo not shown) [Compound 16b, polystachyol], the IC50 was 26.2 ± 2.24 µM in experiment [1] and 96.2 ± 8.34 µM in experiment [2].

`COc1cc(C2OC(c3ccc(O)c(OC)c3)C(CO)C2CO)ccc1O` (stereo not shown) [Compound 17a, neo-olivil]: the figures for the IC50 in experiment [1] and in experiment [2] were 5.96 ± 0.3 µM and 40.8 ± 5.98 µM, respectively.

Turning to `COc1cc(C2OC(c3ccc(O)c(OC)c3)C(CO)C2CO)ccc1O` (stereo not shown) [Compound 17b, neo-olivil], the IC50 in experiment [1] came to 7.75 ± 0.71 µM; in experiment [2], 62.9 ± 5.65 µM.

For `COc1cc(C2OC(c3cc(OC)c(O)c(OC)c3)C(CO)C2CO)cc(OC)c1O` (stereo not shown) [Compound 18a, icariol A2], the results for the 50% inhibitory concentration (IC50) in experiment [1] and in experiment [2] were 6.87 ± 0.54 µM and 17.3 ± 7.51 µM, respectively.

Take `COc1cc(C2OC(c3cc(OC)c(O)c(OC)c3)C(CO)C2CO)cc(OC)c1O` (stereo not shown) [Compound 18b, icariol A2]: the IC50 in experiment [2] is 17.9 ± 4.58 µM.

Take `COc1cc(CCCO)cc(OC)c1OC(CO)CO` [Compound 22, 3-deoxyartselaenin C]: the IC50 in experiment [1] came to 168 ± 4.34 µM; in experiment [2], 20.2 ± 3.53 µM.
